Data: ChEMBL document CHEMBL3232833, “5,10-seco-neo-clerodanes and neo-clerodanes from Salvia microphylla” (J Nat Prod, 2014)

Assays:
Mus musculus = test: Antiinflammatory activity in CD1 mouse assessed as reduction of TPA-induced ear edema per ear after 4 hrs; assay type: functional, organism-based
MCF7 = test: Cytotoxicity against human MCF7 cells after 48 hrs by sulforhodamine B method; assay type: functional, cell-based; settings: MCF7, 48 h
[1] = Cytotoxicity against human SKLU1 cells after 48 hrs by sulforhodamine B method; assay type: functional, cell-based; settings: SK-LU-1, 48 h
U-251 = test: Cytotoxicity against human U251 cells after 48 hrs by sulforhodamine B method; assay type: functional, cell-based; settings: U-251, 48 h
[2] = Cytotoxicity against human HCT15 cells after 48 hrs by sulforhodamine B method; assay type: functional, cell-based; settings: HCT-15, 48 h
PC-3 = test: Cytotoxicity against human PC3 cells after 48 hrs by sulforhodamine B method; assay type: functional, cell-based; settings: PC-3, 48 h
K562 = test: Cytotoxicity against human K562 cells after 48 hrs by sulforhodamine B method; assay type: functional, cell-based; settings: K562, 48 h

| IC50 (Mus musculus) [µmol] | SMILES | IC50 (MCF7) [µM] | IC50 [1] [µM] | IC50 (U-251) [µM] | IC50 [2] [µM] | IC50 (PC-3) [µM] | IC50 (K562) [µM] |
| --- | --- | --- | --- | --- | --- | --- | --- |
| > 1 | C[C@]12C[C@H](c3ccoc3)OC(=O)[C@H]1CC[C@@]13COC(=O)C1=CC=C[C@@]32O | > 10 | > 10 | > 10 | > 10 | > 10 | > 10 |
| > 1 | C[C@]12C[C@H](c3ccoc3)OC(=O)[C@H]1CCC1=C(/C=C\CC2=O)C(=O)OC1 | > 10 | > 10 | > 10 | > 10 | > 10 | > 10 |
